Laboratory results taken from ChEMBL document CHEMBL4406808, “Synthesis and assessment of phenylacrylamide derivatives as potential anti-oxidant and anti-inflammatory agents” (Eur J Med Chem, 2019).
Calls of active or inactive are those of the source. The rule behind the calls is not given here.

Experiments:
[1] = system: HBZY-1; assay: Cytoprotection activity against H2O2-induced cell death in rat HBZY-1 cells assessed as cell viability at 6 uM preincubated with compound for 2 hrs followed by H2O2 addition and measured after 24 hrs by MTT assay (reference value: 62.1%); type: functional; conditions: read-out: Activity
[2] = system: HBZY-1; assay: Cytotoxicity against rat HBZY-1 cells assessed as reduction in cell viability after 2 hrs by MTT assay; type: cell-based; conditions: HBZY-1, 2 h
[3] = target: T1, Nuclear factor erythroid 2-related factor 2 (Homo sapiens) (UniProt Q16236); assay: Activation of Nrf2 (unknown origin) expressed in HEK293 cells co-transfected with ARE luciferase reporter plasmid at 20 uM after 16 hrs by dual luciferase reporter gene assay; type: cell-based
T1 sequence (whole entry): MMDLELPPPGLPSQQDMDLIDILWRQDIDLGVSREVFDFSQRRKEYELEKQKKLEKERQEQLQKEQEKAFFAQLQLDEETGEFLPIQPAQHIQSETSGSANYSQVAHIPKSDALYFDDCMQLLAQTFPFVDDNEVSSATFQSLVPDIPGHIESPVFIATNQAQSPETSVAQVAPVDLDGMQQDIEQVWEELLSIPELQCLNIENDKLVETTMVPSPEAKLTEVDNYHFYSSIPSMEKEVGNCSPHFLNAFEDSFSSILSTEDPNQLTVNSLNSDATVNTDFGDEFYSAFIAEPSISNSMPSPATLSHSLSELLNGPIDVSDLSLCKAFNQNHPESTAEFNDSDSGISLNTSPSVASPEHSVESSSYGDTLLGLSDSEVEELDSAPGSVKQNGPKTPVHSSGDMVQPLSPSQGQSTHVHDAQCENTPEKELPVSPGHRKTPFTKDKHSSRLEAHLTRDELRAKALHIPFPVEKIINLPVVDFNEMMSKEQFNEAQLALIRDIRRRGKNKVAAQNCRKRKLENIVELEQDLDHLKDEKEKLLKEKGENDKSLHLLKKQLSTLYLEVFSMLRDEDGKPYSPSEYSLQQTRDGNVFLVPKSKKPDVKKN

[4] = target: Kelch-like ECH-associated protein 1 (Rattus norvegicus) (UniProt P57790); assay: Binding affinity to Keap1 in rat HBZY-1 cells assessed as induction of Nrf2 nuclear translocation by measuring increase in ratio of nuclear to cytosolic Nrf2 level by Western blot analysis; type: cell-based
[5] = target: Kelch-like ECH-associated protein 1 (Rattus norvegicus) (UniProt P57790); assay: Binding affinity to Keap1 in rat HBZY-1 cells assessed as induction of Keap1/Nrf2 signaling by measuring increase in NQO-1 protein expression by Western blot analysis; type: cell-based
[6] = target: Kelch-like ECH-associated protein 1 (Rattus norvegicus) (UniProt P57790); assay: Binding affinity to Keap1 in rat HBZY-1 cells assessed as induction of Keap1/Nrf2 signaling by measuring increase in HO-1 protein expression by Western blot analysis; type: cell-based
[7] = target: Kelch-like ECH-associated protein 1 (Rattus norvegicus) (UniProt P57790); assay: Binding affinity to Keap1 in rat HBZY-1 cells assessed as induction of Keap1/Nrf2 signaling by measuring increase in GCLM protein expression by Western blot analysis; type: cell-based
[8] = target: Kelch-like ECH-associated protein 1 (Rattus norvegicus) (UniProt P57790); assay: Binding affinity to Keap1 in rat HBZY-1 cells assessed as induction of Keap1/Nrf2 signaling by measuring increase in GCLC protein expression by Western blot analysis; type: cell-based
[9] = target: Kelch-like ECH-associated protein 1 (Rattus norvegicus) (UniProt P57790); assay: Binding affinity to Keap1 in rat HBZY-1 cells assessed as induction of Keap1/Nrf2 signaling by measuring increase in NQO-1 mRNA expression at 6 uM by RT-PCR analysis; type: cell-based
[10] = target: Kelch-like ECH-associated protein 1 (Rattus norvegicus) (UniProt P57790); assay: Binding affinity to Keap1 in rat HBZY-1 cells assessed as induction of Keap1/Nrf2 signaling by measuring increase in HO-1 mRNA expression at 6 uM by RT-PCR analysis; type: cell-based
[11] = target: Kelch-like ECH-associated protein 1 (Rattus norvegicus) (UniProt P57790); assay: Binding affinity to Keap1 in rat HBZY-1 cells assessed as induction of Keap1/Nrf2 signaling by measuring increase in GCLM mRNA expression at 6 uM by RT-PCR analysis; type: cell-based
[12] = target: Kelch-like ECH-associated protein 1 (Rattus norvegicus) (UniProt P57790); assay: Binding affinity to Keap1 in rat HBZY-1 cells assessed as induction of Keap1/Nrf2 signaling by measuring increase in GCLC mRNA expression at 6 uM by RT-PCR analysis; type: cell-based

Sequence of Kelch-like ECH-associated protein 1 (Rattus norvegicus) (P57790 whole entry): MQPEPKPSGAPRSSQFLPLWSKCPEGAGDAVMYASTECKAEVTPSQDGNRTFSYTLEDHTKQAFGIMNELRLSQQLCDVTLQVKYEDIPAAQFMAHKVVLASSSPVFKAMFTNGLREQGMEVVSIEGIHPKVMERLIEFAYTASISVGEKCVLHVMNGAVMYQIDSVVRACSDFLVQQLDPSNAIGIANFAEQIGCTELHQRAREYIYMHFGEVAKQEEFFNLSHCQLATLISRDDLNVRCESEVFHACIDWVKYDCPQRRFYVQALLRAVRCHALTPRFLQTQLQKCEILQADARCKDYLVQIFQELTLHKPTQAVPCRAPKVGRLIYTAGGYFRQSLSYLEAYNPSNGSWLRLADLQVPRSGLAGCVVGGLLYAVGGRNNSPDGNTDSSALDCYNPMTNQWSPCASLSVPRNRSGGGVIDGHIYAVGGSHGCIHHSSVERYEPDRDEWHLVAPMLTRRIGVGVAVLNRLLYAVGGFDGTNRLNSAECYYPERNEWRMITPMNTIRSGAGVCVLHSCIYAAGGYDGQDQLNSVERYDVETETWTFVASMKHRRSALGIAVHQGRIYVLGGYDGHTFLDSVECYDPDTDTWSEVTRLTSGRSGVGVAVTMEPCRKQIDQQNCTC

| SMILES | viability at 6 µM [1] [%] | IC50 [2] [µM] | other results |
| --- | --- | --- | --- |
| COc1ccc(CNC(=O)/C=C/c2ccccc2C(F)(F)F)cc1 | 65.6 to 96.4 | > 200 |  |
| COc1ccccc1NC(=O)/C(C#N)=C/c1ccc(C)cc1 | 65.6 to 96.4 | > 200 |  |
| COc1ccccc1NC(=O)/C(C#N)=C/c1cc(OC)c(OC)c(OC)c1 | 78.1 | > 200 |  |
| O=C(/C=C/c1ccccc1C(F)(F)F)Nc1ccc(F)c(Cl)c1 | 65.6 to 96.4 | > 200 |  |
| COc1ccccc1NC(=O)/C(C#N)=C/c1ccccc1C | 65.6 to 96.4 | > 200 |  |
| COc1cc(NC(=O)/C=C/c2ccccc2C(F)(F)F)cc(OC)c1OC | 65.6 to 96.4 | > 200 |  |
| COc1ccccc1NC(=O)/C(C#N)=C/c1ccc(OC)c(OC)c1 | 78.4 | > 200 |  |
| COc1cc(NC(=O)/C(C#N)=C/c2ccccc2C(F)(F)F)cc(OC)c1OC | 65.6 to 96.4 | > 200 |  |
| CCCCNC(=O)/C(C#N)=C/c1ccccc1C(F)(F)F | 65.6 to 96.4 | > 200 |  |
| COc1ccc(CNC(=O)/C(C#N)=C/c2ccccc2C(F)(F)F)cc1 | 80.8 | > 200 |  |
| COc1ccccc1NC(=O)/C=C/c1ccccc1C(F)(F)F | 65.6 to 96.4 | > 200 |  |
| CC(C)(C)c1cc(O)ccc1O |  |  | Activity [3]: Active |
| Oc1ccc(/C=C/c2cc(O)cc(O)c2)cc1 [RESVERATROL] | 76.8 |  | Activity [4]: Active; Activity [5]: Active; Activity [6]: Active; Activity [7]: Active; Activity [8]: Active; Activity [9]: Active; Activity [10]: Active; Activity [11]: Active; Activity [12]: Active |
